# Read-outs that look alike come from different tables or passages of the source.
# Legend:
# Type in all cases: in vivo
# [1] = system: German cockroach; assay: Example 1: German cockroach mortality, spray of bifenthrin and imidacloprid combinations
# Source text: (§1) The following examples further illustrate the present invention, but, of course, should not be construed as in any way limiting its scope. The examples set forth certain biological data illustrating the efficacy of the compositions of the present invention in controlling general household pests. Each example embodies a separate test wherein the pests were randomly selected from a population at a random age. As a result, from example to example, the ages of the pests can be very different. This age difference potentially translates to different baselines for each example. Therefore, data should only be compared within the example and not from example to example due to the differences in age of the pests from example to example. Unless otherwise indicated, all parts, percentages, and the like are by weight. The spray chamber used in the examples was approximately 76 inches tall, 73 inches long and 31 inches deep with an adjustable shelf (approximately 22 inches deep) and a movable spray nozzle. The spray chambers were calibrated to deliver a volume of approximately 1 gallon of liquid per 1000 square feet of area at about 14 pounds per square inch of pressure. A DeVilbiss hand held sprayer (Atomizer model 152) manufactured by DeVilbiss located in Glendale Heights, Ill. was used in testing house flies and mosquitoes. The DeVilbiss was used to apply approximately 3-5 milliliters of product at about 10 pounds per square inch.
# The compositions of the present invention were tested for German cockroach activity in the following manner:
# (§2) Test compositions made up of TALSTARONE® MULTI-INSECTICIDE and a wettable powder of imidacloprid (MERIT) in distilled water were prepared that provided appropriate rates of application of combinations of bifenthrin and imidacloprid, as well as bifenthrin and imidacloprid alone.
# The spray chamber was then calibrated to deliver the treatment solution at the desired volume and pressure over the desired area on the chamber shelf. Spray chamber shelf height was adjusted to approximately 18 inches from the spray tip. The shelf was then covered with aluminum foil and the center of the shelf from front-to-back and end-to-end was determined. A desired number of 4.0″ sieve circles were marked on the aluminum foil with a permanent marker. The inside of a desired number of PVC rings were coated with a petroleum jelly/mineral oil mixture (1:2 ratio). The PVC rings were place on the sieve circles. 10 male German cockroaches were placed inside each PVC ring. The sprayer was activated and the test compound was applied to each PVC ring interior. German cockroach mortality was measured.
# [2] = system: American cockroach; assay: Example 3: American cockroach knockdown and mortality, bifenthrin and imidacloprid
# Source text: as §1
# The compositions of the present invention were tested for American cockroach activity in the following manner:
# as §2
# (§3) The spray chamber was then calibrated to deliver the treatment solution at the desired volume and pressure over the desired area on the chamber shelf. Spray chamber shelf height was adjusted to approximately 18 inches from the spray tip. The shelf was then covered with aluminum foil and the center of the shelf from front-to-back and end-to-end was determined. A desired number of 4.0″ sieve circles were marked on the aluminum foil with a permanent marker. The inside of a desired number of PVC rings were coated with a petroleum jelly/mineral oil mixture (1:2 ratio). The PVC rings were place on the sieve circles. 10 male American cockroaches were placed inside each PVC ring. The sprayer was activated and the test compound was applied to each PVC ring interior. American cockroach knockdown and mortality were measured.
# [3] = system: Oriental cockroach; assay: Example 10: Oriental cockroach knockdown and mortality, bifenthrin and thiamethoxam
# Source text: as §1
# The compositions of the present invention were tested for Oriental cockroach activity in the following manner:
# Test compositions made up of TALSTARONE® MULTI-INSECTICIDE and a water dispersible granular of thiamethoxam (CENTRIC) in distilled water were prepared that provided appropriate rates of application of combinations of bifenthrin and thiamethoxam, as well as bifenthrin and thiamethoxam alone.
# as §3, with “Oriental” for “American”
# [4] = system: Yellow Fever Mosquito
# Source text: as §1
# The compositions of the present invention were tested for Yellow Fever Mosquito activity in the following manner:
# Test compositions made up of TALSTARONE® MULTI-INSECTICIDE and a 16% a.i. water dispersible granular of clothianidin in distilled water were prepared that provided appropriate rates of application of combinations of bifenthrin and clothianidin, as well as bifenthrin and clothianidin alone.
# A DeVilbiss hand held sprayer was used to deliver the treatment solution at the desired volume and pressure. The Yellow Fever Mosquitoes to be treated were collected and placed in screened 16 oz paper cups. The hand held sprayer was activated and the test compound was applied to each paper cup interior. Yellow Fever Mosquito knockdown and mortality were measured.
# [5] = rate of appln. 10 PPM (0.001% by weight)
# [6] = rate of appln. 50 PPM (0.005% by weight)
smiles,measurement,setting,value
"Cc1c(COC(=O)[C@@H]2[C@H](/C=C(\Cl)C(F)(F)F)C2(C)C)cccc1-c1ccccc1 (racemic) [A, 2-methylbiphenyl-3-ylmethyl (Z)-(1RS)-cis-3-(2-chloro-3,3,3-trifluoroprop-1-enyl)-2,2-dimethylcyclopropanecarboxylate]",Mortality Rate @ 60 minutes,"[1]; 10 PPM, 0.001% by weight",3%
same,Mortality Rate @ 120 minutes,"[1]; 10 PPM, 0.001% by weight",33%
same,Mortality Rate @ 1 day,"[1]; 10 PPM, 0.001% by weight",33%
same,Mortality Rate @ 2 days,"[1]; 10 PPM, 0.001% by weight",60%
same,Mortality Rate @ 60 minutes,"[1]; 50 PPM, 0.005% by weight",30%
same,Mortality Rate @ 120 minutes,"[1]; 50 PPM, 0.005% by weight",48%
same,Mortality Rate @ 1 day,"[1]; 50 PPM, 0.005% by weight",58%
same,Mortality Rate @ 2 days,"[1]; 50 PPM, 0.005% by weight",100%
same,Knockdown Rate @ 15 minute,"[2]; 10 PPM, 0.001% by weight",0%
same,Knockdown Rate @ 30 minute,"[2]; 10 PPM, 0.001% by weight",0%
same,Mortality Rate @ 60 minutes,"[2]; 10 PPM, 0.001% by weight",0%
same,Mortality Rate @ 120 minutes,"[2]; 10 PPM, 0.001% by weight",0%
same,Mortality Rate @ 4 hours,"[2]; 10 PPM, 0.001% by weight",5%
same,Mortality Rate @ 1 day,"[2]; 10 PPM, 0.001% by weight",15%
same,Mortality Rate @ 2 days,"[2]; 10 PPM, 0.001% by weight",25%
same,Knockdown Rate @ 15 minute,"[2]; 50 PPM, 0.005% by weight",0%
same,Knockdown Rate @ 30 minute,"[2]; 50 PPM, 0.005% by weight",0%
same,Mortality Rate @ 60 minutes,"[2]; 50 PPM, 0.005% by weight",5%
same,Mortality Rate @ 120 minutes,"[2]; 50 PPM, 0.005% by weight",5%
same,Mortality Rate @ 4 hours,"[2]; 50 PPM, 0.005% by weight",10%
same,Mortality Rate @ 1 day,"[2]; 50 PPM, 0.005% by weight",65%
same,Mortality Rate @ 2 days,"[2]; 50 PPM, 0.005% by weight",70%
same,Knockdown Rate @ 15 minute,"[3]; 10 PPM, 0.001% by weight",0%
same,Knockdown Rate @ 30 minute,"[3]; 10 PPM, 0.001% by weight",0%
same,Mortality Rate @ 60 minutes,"[3]; 10 PPM, 0.001% by weight",0%
same,Mortality Rate @ 120 minutes,"[3]; 10 PPM, 0.001% by weight",0%
same,Mortality Rate @ 4 hours,"[3]; 10 PPM, 0.001% by weight",0%
same,Mortality Rate @ 1 day,"[3]; 10 PPM, 0.001% by weight",0%
same,Knockdown Rate @ 15 minute,"[3]; 50 PPM, 0.005% by weight",0%
same,Knockdown Rate @ 30 minute,"[3]; 50 PPM, 0.005% by weight",0%
same,Mortality Rate @ 60 minutes,"[3]; 50 PPM, 0.005% by weight",0%
same,Mortality Rate @ 120 minutes,"[3]; 50 PPM, 0.005% by weight",0%
same,Mortality Rate @ 4 hours,"[3]; 50 PPM, 0.005% by weight",0%
same,Mortality Rate @ 1 day,"[3]; 50 PPM, 0.005% by weight",45%
same,Knockdown Rate @ 15 minute,[4]; [5],27%
same,Knockdown Rate @ 30 minute,[4]; [5],97%
same,Mortality Rate @ 45 minutes,[4]; [5],100%
same,Mortality Rate @ 60 minutes,[4]; [5],100%
same,Mortality Rate @ 120 minutes,[4]; [5],100%
same,Mortality Rate @ 180 minute,[4]; [5],100%
same,Mortality Rate @ 4 hours,[4]; [5],100%
same,Mortality Rate @ 1 day,[4]; [5],100%
same,Knockdown Rate @ 15 minute,[4]; [6],90%
same,Knockdown Rate @ 30 minute,[4]; [6],100%
same,Mortality Rate @ 45 minutes,[4]; [6],100%
same,Mortality Rate @ 60 minutes,[4]; [6],100%
same,Mortality Rate @ 120 minutes,[4]; [6],100%
same,Mortality Rate @ 180 minute,[4]; [6],100%
same,Mortality Rate @ 4 hours,[4]; [6],100%
same,Mortality Rate @ 1 day,[4]; [6],100%

# Source: patent publication US8092816B2, “Insecticidal compositions for control of general household pests” (priority 2004, dated 2012)
